# Data taken from US8088761B2, “Enzyme inhibitors” (Cancer Research Technology Limited, priority 2005, dated 2012).
# Read-outs that look alike come from different tables or passages of the source.
# Key:
# HCT116 cells = assay: Cell viability assay (MTT) in HCT116 cell line; format: cell-based; settings: Homo sapiens, HCT-116, 72 hrs, IC50 range, read-out: HCT116 cell growth inhibition
# How it was run: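 MTT read-out (4 hrs, 37 °C, DMSO extraction) following 72 hrs of treatment with 0-50 μM Aurora inhibitor. HCT116 cells were plated a day earlier and tested in triplicate; IC50 derived from the curve.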
# Aurora-A = biological target: T1, Aurora-A (Homo sapiens, UniProt O14965); assay: Flashplate Aurora A enzyme inhibition assay; format: biochemical
# T1 sequence (O14965 1-403): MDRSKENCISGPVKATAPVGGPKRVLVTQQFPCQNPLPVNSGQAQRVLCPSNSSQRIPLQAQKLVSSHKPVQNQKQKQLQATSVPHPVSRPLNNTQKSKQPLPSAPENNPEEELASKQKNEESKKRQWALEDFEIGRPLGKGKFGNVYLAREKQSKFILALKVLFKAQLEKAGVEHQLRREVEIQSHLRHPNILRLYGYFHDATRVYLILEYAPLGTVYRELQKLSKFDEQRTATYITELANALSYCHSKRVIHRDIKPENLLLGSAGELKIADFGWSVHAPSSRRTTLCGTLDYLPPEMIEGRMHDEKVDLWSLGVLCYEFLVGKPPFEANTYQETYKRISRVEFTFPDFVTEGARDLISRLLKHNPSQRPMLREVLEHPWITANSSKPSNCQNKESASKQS
# How it was run: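 This is a radiometric Flashplate format: plates were precoated with DTT, and compound (in 2% DMSO) was mixed with kinase buffer (pH 7.5 Tris, MgCl2, NaCl) containing 1 mM MBP, 20 μM ATP and ^33P-ATP. The reaction was started with 250 ng Aurora-A per well and incubated 2 h at RT. It was then stopped by 10 mM sodium pyrophosphate washing, and plates were scintillation-counted.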
# [1] = Flashplate assay, IC50 range, read-out: Aurora-A inhibition
SMILES,IC50 (HCT116 cells) [nM],IC50 (Aurora-A; [1]) [nM],IC50 (Aurora-A) [nM]
"CN(C)c1ccc(-c2nc3c(N4CCN(CCc5ccccc5)CC4)c(Cl)cnc3[nH]2)cc1 [Example 176, 4-(6-Chloro-7-(4-phenethylpiperazin-1-yl)-3H-imidazo[4,5-b]pyridin-2-yl)-N,N-dimethylaniline]",2000 to 50000,500 to 2000,–
"Cc1nn(C)c(C)c1-c1nc2c(N3CCN(Cc4cccnc4)CC3)c(Br)cnc2[nH]1 [Example 57, 6-Bromo-7-(4-(pyridin-3-ylmethyl)piperazin-1-yl)-2-(1,3,5-trimethyl-1H-pyrazol-4-yl)-3H-imidazo[4,5-b]pyridine]",2000 to 50000,< 500,–
"CN(C)c1ccc(-c2nc3c(N4CCN(CC(=O)Nc5ccccc5)CC4)c(Br)cnc3[nH]2)cc1 [Example 20, 2-(4-(6-Bromo-2-(4-(dimethylamino)phenyl)-3H-imidazo[4,5-b]pyridin-7-yl)piperazin-1-yl)-N-phenylacetamide]",500 to 2000,< 500,–
"COc1ccc(-c2nc3c(N4CCN(Cc5ccncc5)CC4)c(Cl)cnc3[nH]2)cc1 [Example 35, 6-Chloro-2-(4-methoxyphenyl)-7-(4-(pyridin-4-ylmethyl)piperazin-1-yl)-3H-imidazo[4,5-b]pyridine]",500 to 2000,< 500,–
"COc1ccc(-c2nc3c(N4CCN(Cc5cncs5)CC4)c(Br)cnc3[nH]2)cc1 [Example 170, 5-((4-(6-Bromo-2-(4-methoxyphenyl)-3H-imidazo[4,5-b]pyridin-7-yl)piperazin-1-yl)methyl)thiazole]",500 to 2000,< 500,–
"CN(C)c1ccc(-c2nc3c(N4CCN(CC(=O)Nc5cccnc5)CC4)c(Br)cnc3[nH]2)cc1 [Example 21, 2-(4-(6-Bromo-2-(4-(dimethylamino)phenyl)-3H-imidazo[4,5-b]pyridin-7-yl)piperazin-1-yl)-N-(pyridin-3-yl)acetamide]",500 to 2000,< 500,–
"CN(C)c1ccc(-c2nc3c(N4CCN(Cc5cccnc5)CC4)c(Br)cnc3[nH]2)cc1 [Example 27, 4-(6-Bromo-7-(4-(pyridin-3-ylmethyl)piperazin-1-yl)-3H-imidazo[4,5-b]pyridin-2-yl)-N,N-dimethylaniline]",500 to 2000,< 500,–
"CN(C)c1ccc(-c2nc3c(N4CCC(CC(=O)Nc5nccs5)CC4)c(Br)cnc3[nH]2)cc1 [Example 90, 2-{1-[6-Bromo-2-(4-dimethylamino-phenyl)-3H-imidazo[4,5-b]pyridin-7-yl]-piperidin-4-yl}-N-thiazol-2-yl-acetamide]",500 to 2000,< 500,–
"CC(C)(C)OC(=O)NCc1ccc(-c2nc3c(N4CCC(Cc5ccccc5)CC4)c(Br)cnc3[nH]2)cc1 [Example 132, tert-Butyl 4-(7-(4-benzylpiperidin-1-yl)-6-bromo-3H-imidazo[4,5-b]pyridin-2-yl)benzylcarbamate]",2000 to 50000,< 500,–
"Cc1csc(NC(=O)CN2CCN(c3c(Cl)cnc4[nH]c(-c5ccc(N(C)C)cc5)nc34)CC2)n1 [Example 23, 2-(4-(6-Chloro-2-(4-(dimethylamino)phenyl)-3H-imidazo[4,5-b]pyridin-7-yl)piperazin-1-yl)-N-(4-methylthiazol-2-yl)acetamide]",500 to 2000,< 500,–
"CC(C)CN1CCN(c2c(Br)cnc3[nH]c(-c4ccc(N(C)C)cc4)nc23)CC1 [Example 32, 4-(6-Bromo-7-(4-isobutylpiperazin-1-yl)-3H-imidazo[4,5-b]pyridin-2-yl)-N,N-dimethylaniline]",500 to 2000,–,< 500
"CC(c1ccccc1)N1CCN(c2c(Br)cnc3[nH]c(-c4ccc(N5CCN(C)CC5)cc4)nc23)CC1 (centres unmarked) [Example 71, 6-Bromo-2-[4-(4-methyl-piperazin-1-yl)-phenyl]-7-[4-(1-phenyl-ethyl)-piperazin-1-yl]-3H-imidazo[4,5-b]pyridine]",< 500,< 500,–

# Second part, led by results:
IC50 (HCT116 cells) [nM],IC50 (Aurora-A; [1]) [nM],SMILES,IC50 (Aurora-A) [nM]
500 to 2000,< 500,"COc1ccc(CN2CCN(c3c(Br)cnc4[nH]c(-c5ccc(CN6CCOCC6)cc5)nc34)CC2)cn1 [Example 117, 4-(4-(6-Bromo-7-(4-((6-methoxypyridin-3-yl)methyl)piperazin-1-yl)-3H-imidazo[4,5-b]pyridin-2-yl)benzyl)morpholine]",–
2000 to 50000,< 500,"CN(C)c1ccc(-c2nc3c(N4CCN(CC(=O)N(C)c5ccccc5)CC4)c(Cl)cnc3[nH]2)cc1 [Example 3, 2-{4-[6-Chloro-2-(4-dimethylamino-phenyl)-3H-imidazo[4,5-b]pyridin-7-yl]-piperazin-1-yl}-N-methyl-N-phenyl-acetamide]",–
< 500,< 500,"O=C(CN1CCN(c2c(Cl)cnc3[nH]c(-c4ccc(Cn5cccn5)cc4)nc23)CC1)Nc1nccs1 [Example 84, 2-(4-(2-(4-((1H-Pyrazol-1-yl)methyl)phenyl)-6-chloro-3H-imidazo[4,5-b]pyridin-7-yl)piperazin-1-yl)-N-(thiazol-2-yl)acetamide]",–
2000 to 50000,500 to 2000,"NC(=O)C1CC1c1nc2c(N3CCN(CC(=O)Nc4nccs4)CC3)c(Br)cnc2[nH]1 (centres unmarked) [Example 46, 2-(6-Bromo-7-(4-(2-oxo-2-(thiazol-2-ylamino)ethyl)piperazin-1-yl)-3H-imidazo[4,5-b]pyridin-2-yl)cyclopropanecarboxamide]",–
500 to 2000,< 500,"CC(C)(C)OC(=O)N1CCN(Cc2ccc(-c3nc4c(N5CCN(Cc6cccnc6)CC5)c(Br)cnc4[nH]3)cc2)CC1 [Example 105, tert-Butyl 4-(4-(6-bromo-7-(4-(pyridin-3-ylmethyl)piperazin-1-yl)-3H-imidazo[4,5-b]pyridin-2-yl)benzyl)piperazine-1-carboxylate]",–
2000 to 50000,< 500,"NCc1cccc(-c2nc3c(N4CCN(CC(=O)Nc5nccs5)CC4)c(Br)cnc3[nH]2)c1 [Example 12, 2-{4-[2-(3-Aminomethyl-phenyl)-6-bromo-3H-imidazo[4,5-b]pyridin-7-yl]-piperazin-1-yl}-N-thiazol-2-yl-acetamide]",–
500 to 2000,< 500,"Cn1cncc1CN1CCN(c2c(Br)cnc3[nH]c(-c4ccc(CN5CCOCC5)cc4)nc23)CC1 [Example 169, 4-(4-(6-Bromo-7-(4-((1-methyl-1H-imidazol-5-yl)methyl)piperazin-1-yl)-3H-imidazo[4,5-b]pyridin-2-yl)benzyl)morpholine]",–
< 500,< 500,"Clc1cnc2[nH]c(-c3ccc(Cn4cccn4)cc3)nc2c1N1CCN(Cc2ccncc2)CC1 [Example 83, 2-(4-((1H-Pyrazol-1-yl)methyl)phenyl)-6-chloro-7-(4-(pyridin-4-ylmethyl)piperazin-1-yl)-3H-imidazo[4,5-b]pyridine]",–
< 500,< 500,"CC(c1ccncc1)N1CCN(c2c(Br)cnc3[nH]c(-c4ccc(OCCN(C)C)cc4)nc23)CC1 (centres unmarked) [Example 131, 2-(4-(6-Bromo-7-(4-(1-(pyridin-4-yl)ethyl)piperazin-1-yl)-3H-imidazo[4,5-b]pyridin-2-yl)phenoxy)-N,N-dimethylethanamine]",–
500 to 2000,< 500,"Clc1cnc2[nH]c(-c3ccc(Cn4cccn4)cc3)nc2c1N1CCN(Cc2cccnc2)CC1 [Example 138, 2-(4-((1H-Pyrazol-1-yl)methyl)phenyl)-6-chloro-7-(4-(pyridin-3-ylmethyl)piperazin-1-yl)-3H-imidazo[4,5-b]pyridine]",–
